Like-named read-outs stand apart in the source and are kept apart here.
Key:
[1] = cited from earlier work
[2] = in vitro dissolution of matched cholesterol gallstones from cholecystectomy patients, 30 ml polyethylene bag model gallbladder, 180 ml/min (Table II); set-up: species or system human; conditions: five stones per set; for Mean Time (complete dissolution): mean stone weight 79-340 mg, 150 ml solvent
[3] = in vitro dissolution of fresh human cholesterol gallstones in a model gallbladder at high flow rate (Table I); conditions: for Dissolution Rate / Dissolution Time: high flow rate; for Dissolution Rate: stone taken as 90% by weight cholesterol; for dissolution of cholesterol gallstones compared with MTBE: in words; for Dissolution Time: total dissolution, one stone of 132-175 mg per solvent
Protocol: Their efficacy and the techniques of the present invention may be seen from the following data. In the tests described in Table I below, fresh human faceted cholesterol gallstones (kept in distilled water) were dissolved in vitro and the times were recorded for the total dissolution, using a model gallbladder at a high flow rate achieved by a metering pump. "High flow rate" as used herein will mean rates of flow in the range which can be anticipated to result in fluid turbulence for the solvent in the region of the biliary tract surrounding the calculi (gallstones). While "high" rates will vary according to solvent type and viscosity and with individual patients, it will be expected that appropriate flow rates will be at least about 20 ml/min, preferably at least about 100 ml/min, and more preferably at least about 150 ml/min. For comparison purposes a parallel test with MTBE is also shown.

[4] = cited from earlier work; remark: listed apart in the source
[5] = perfusion of the gallbladder of an anesthetized pig, solvent level in central venous blood by gas chromatography
[6] = treatment of a human patient with gallstones by solvent perfusion; assay type: in vivo
Text: Another aspect of the invention is the in vivo dissolution of gallstones using the C5 -C6 ester solvents provided herein as the solvent in a high flow rate pumping system, in particular a continuous pumping system controlled by gallbladder pressure feedback and employing a delivery system consisting of a catheter, a continuous flow pumping system, a controller and a tubing set; see aforesaid U.S. patent application No. 07/482,194, filed Feb. 20, 1990, to S. Zakko, incorporated herein by reference.
Such a pumping system, in combination with the low viscosity solvent provided herein, has the capability of emptying the gallbladder many times faster than the rate of normal gallbladder contraction, to prevent solvent from emptying into the intestine should such a gallbladder contraction occur during perfusion. […]
Further, should the pressure remain above (as may occur with the beginning of a gallbladder contraction) or below the upper and lower pressure limits in excess of empirically determined delays, or above or below the upper and lower pressure alarms, for the associated delays, the controller causes the system to enter into an alarm mode in which both pumps operate in the aspiration direction at maximum flow rate to remove the low viscosity solvent.

[7] = in words; cited from earlier work
[8] = in words; cited from earlier work; remark: listed apart in the source

Compound | Boiling Point ([1]; Table I) | Overall Rate (dissolution) [2] | Mean Time (complete dissolution) [2] | Dissolution Rate [3] | dissolution of cholesterol gallstones compared with MTBE [3] | Dissolution Time [3] | further results
CCOC(=O)C(C)C [ethyl isobutyrate] | 112 °C | 4.55 mg/min | 33 min | 8 mg/min | rate generally comparable to that of MTBE | 15 min | 
CCOCC [diethyl ether, reference compound] |  |  |  |  |  |  | Boiling point relative to body temperature ([1]; in words): below body temperature
COC(C)(C)C [methyl t-butyl ether] | 55 °C | 7.69 mg/min | 19 min | 20 mg/min |  | 8 min | side effects in patients ([4]; believed caused by increased blood levels of MTBE): nausea and vomiting; systemic toxicity, pain and intestinal damage on escape into the small intestine ([4]; escape from gallbladder into small intestine): signs of systemic toxicity (sedation), pain and by endoscopy, damage to the epithelium of the small intestine; effect of entry into the blood stream ([4]; in vivo): hemolysis; renal failure ([4]; reversible): one; blood level of solvent during perfusion ([5]; 10 ml, 2 h gallbladder perfusion, central vein): 0.01-0.1 μl/ml; concentration ([5]; read-out: blood level of solvent during perfusion, 10 ml, 2 h gallbladder perfusion, central vein): 84 to 840 µM; blood level of solvent after perfusion ([5]; thirty and sixty minutes following perfusion): declined after perfusion; Boiling Point [1]: 55 °C
CCOC(=O)CC [ethyl propionate] | 99 °C | 12.22 mg/min | 14 min | 13 mg/min | rate generally comparable to that of MTBE | 10 min | blood level of solvent throughout the procedure ([5]; before, 1 h and 2 h of perfusion, 30 and 60 min after): below the level of detectability; cholesterol concentration in the solvent during the procedure, versus previous procedures using MTBE ([6]; human patient): higher than concentrations observed during previous procedures conducted using MTBE; treatment of a human patient to eliminate cholesterol gallstones ([6]; one human patient): successful treatment
CCCCCCCC(=O)OCC(O)CO (stereo not shown) [Monooctanoin, monooctanoin] |  |  |  |  |  |  | gallstone dissolution speed [7]: dissolves gallstones very slowly; viscosity [8]: relatively high viscosity
CC(=O)OC(C)C [isopropyl acetate] | 89 °C | 5.48 mg/min | 26 min | 9 mg/min | rate generally comparable to that of MTBE | 14 min | 
CCCOC(C)=O [n-propyl acetate] | 102 °C | 4.45 mg/min | 35 min | 14 mg/min | rate generally comparable to that of MTBE | 10 min | 
